Assay results published in US20050079594A1, “Method of removing a biofilm” (Karine Marion, priority 2002, published 2005).

Tests used:
biofilm 1 = experiment: Area covered by biofilm 1 (staining, image analysis); type: cell-based
Experimental: The method was tested and implemented experimentally on five types of biofilm; biofilms 1, 2, 3 and 5 were obtained using an in vitro model that mimics the hemodialysis generator: • biofilm 1: enriched with nutrients for accelerated growth (3 days) moderate thickness (about 10^5 CFU/cm^2), very rich in slime; • biofilm 2: not enriched with nutrients having grown over 1 month, equivalent to those actually encountered in dialysis generators (about 10^3 CFU/cm^2) very rich in scale crystals; • biofilm 3: enriched with nutrients for accelerated growth (5 days), thick (about 10^9 CFU/cm^2) very rich in slime; • biofilm 4: specimen of tubing conveying water for hemodialysis, taken from a center, covered with a biofilm of about 10^3 CFU/cm^2 but having grown over more than one year; and • biofilm 5: enriched with nutrients for accelerated growth, having grown in a “preventive” model over three weeks. Production of the In Vitro Model
A 250 ml reactor vessel was filled with a nonsterile dialysate, prepared by diluting sterile apyrogenic hemodialysis concentrates (Clearflex® from Bieffe Medical) with nonsterile osmosed water containing Pseudomonas putida, Pseudomonas fluorescens and Flavimonas orizibitans, produced continuously in the laboratory.
The contaminating medium was circulated in a closed circuit in a loop of silicon tubing 1.5 meters in length and 5 mm inside diameter with a flow rate of 500 ml/min by a peristaltique pump. All the tubing and the reactor vessel were sterilized beforehand in an autoclave at 121° C. for 30 minutes. Thus, the dialysate naturally contaminated by the bacteria in the water was the only source of microorganisms.
The entire system was maintained at a temperature of 37° C. by a hotplate on which the reactor vessel was placed.
In the case of biofilms 1, 3 and 5, the bacterial growth and consequently the development of the biofilm were accelerated by adding an LB culture medium diluted 50-fold, i.e. an LB culture medium diluted to […] and topped up with a flow equal to 1/10th of that of the dialysate. The dialysate and culture medium top-up flow rates, regulated by a peristaltic pump, were 5 and 0.5 ml/minute, respectively.
The tubings covered with biofilms 1, 2 and 3 were cut into segments 5 cm in length. For screening on biofilms 1 and 2, each segment for undergoing one of the various treatments to be investigated was selected by drawing lots. Control specimens taken at random from the silicon loop were kept untreated.
The tubing segments to be treated were attached to the descending branch of a set-up consisting of two tubings—one ascending and the other descending, a peristaltic pump and a water bath (for treatments carried out a temperature above 20° C.). The product to be tested in “recirculation” mode was dissolved in a 100 ml flask and driven by the peristaltic pump at a rate of 500 ml/min in a closed circuit through the tubings for a duration corresponding to the contact times given in table II. The product to be tested in “static” mode was dissolved in a 100 ml flask and driven by the peristaltic pump until the tubings had been filled; the pump was then stopped and the product left in stasis for the desired contact time. After each treatment by a given product, the tubing specimens were rinsed for five minutes with osmosed water.
The control and treated biofilms were stained: • either with a 0.25% crystal violet solution; • or with a Baclight® fluorochrome solution (Syto 9 and propidium iodide). The viable bacteria show up green while the dead bacteria show up yellow or red.
The silicon tubing specimens covered with stained biofilms were attached to glass slides and observed under an optical microscope, the microscope being connected to a camera and to “Scion Images” image analysis software. […]

biofilm 2 = experiment: Area covered by biofilm 2 (staining, image analysis); type: cell-based; settings: Treat. No. 7, 3%, 37 °C, 5 min, Recirc
Experimental: The method was tested and implemented experimentally on five types of biofilm; biofilms 1, 2, 3 and 5 were obtained using an in vitro model that mimics the hemodialysis generator: • biofilm 1: enriched with nutrients for accelerated growth (3 days) moderate thickness (about 10^5 CFU/cm^2), very rich in slime; • biofilm 2: not enriched with nutrients having grown over 1 month, equivalent to those actually encountered in dialysis generators (about 10^3 CFU/cm^2) very rich in scale crystals; • biofilm 3: enriched with nutrients for accelerated growth (5 days), thick (about 10^9 CFU/cm^2) very rich in slime; • biofilm 4: specimen of tubing conveying water for hemodialysis, taken from a center, covered with a biofilm of about 10^3 CFU/cm^2 but having grown over more than one year; and • biofilm 5: enriched with nutrients for accelerated growth, having grown in a “preventive” model over three weeks. […] Thus, several (6 to 10) photographs of the same specimen were taken, the stained area was evaluated quantitatively by the image analysis software and a mean covered area value per specimen was calculated. This mean value was compared with the covered area of the untreated control specimens: a percentage reduction in covered area was then calculated.

O=C(O)CC(O)(CC(=O)O)C(=O)O [Citric acid]
Result (removal; % covered area reduction) (biofilm 1; Treat. No. 26, 3%, RT, 40 min, Recirc): . (No removal 0) | Result (removal; % covered area reduction) (biofilm 2): **** (Excellent removal 75-99%)

[K+].[OH-] [KOH]
Result (removal; % covered area reduction) (biofilm 1; Treat. No. 13, 0.02N, RT, 40 min, Stat): ** (Moderate removal 25-50%) | Result (removal; % covered area reduction) (biofilm 1; Treat. No. 15, 0.02N, RT, 40 min, Recirc): ** (Moderate removal 25-50%) | Result (removal; % covered area reduction) (biofilm 1; Treat. No. 21, 0.02N, RT, 1 h, Recirc): *** (Good removal 50-75%) | Result (removal; % covered area reduction) (biofilm 1; Treat. No. 22, 0.02N, RT, 24 h, Recirc): **** (Excellent removal 75-99%) | Result (removal; % covered area reduction) (biofilm 1; Treat. No. 27, 0.002N, RT, 40 min, Recirc): ** (Moderate removal 25-50%) | Result (removal; % covered area reduction) (biofilm 1; Treat. No. 35, 0.001N, RT, 40 min, Recirc): ** (Moderate removal 25-50%)

[Na+].[OH-] [NaOH]
Result (removal; % covered area reduction) (biofilm 1; Treat. No. 12, 0.01N, RT, 40 min, Stat): * (Poor removal 0-25%)

[O-][Cl+3]([O-])([O-])O [Perchlo ac, Perchloric acid]
Result (removal; % covered area reduction) (biofilm 1; Treat. No. 11, 0.05%, RT, 40 min, Stat): . (No removal 0)

CCCCCCCCCCCCOS(=O)(=O)[O-].[Na+] [SDS, Sodium dodecyl sulfate]
Result (removal; % covered area reduction) (biofilm 1; Treat. No. 1, 5%, RT, 40 min, Stat): ** (Moderate removal 25-50%) | Result (removal; % covered area reduction) (biofilm 1; Treat. No. 8, 5%, RT, 40 min, Recirc): */.

O=C(O)C(Cl)(Cl)Cl [TCA, Trichloroacetic acid]
Result (removal; % covered area reduction) (biofilm 1; Treat. No. 14, 0.25%, RT, 40 min, Stat): . (No removal 0)

Triton
Result (removal; % covered area reduction) (biofilm 1; Treat. No. 2, 5%, RT, 40 min, Stat): * (Poor removal 0-25%) | Result (removal; % covered area reduction) (biofilm 1; Treat. No. 16, 5%, RT, 40 min, Recirc): . (No removal 0)

Trypsin
Result (removal; % covered area reduction) (biofilm 1; Treat. No. 6, EDTA IX, RT, 40 min, Stat): . (No removal 0) | Result (removal; % covered area reduction) (biofilm 1; Treat. No. 7, 0.25%, 37 °C, 40 min, Stat): ** (Moderate removal 25-50%) | Result (removal; % covered area reduction) (biofilm 1; Treat. No. 29, 0.25%, 37 °C, 40 min, Recirc): . (No removal 0) | Result (removal; % covered area reduction) (biofilm 1; Treat. No. 37, 1%, 37 °C, 40 min, Recirc): * (Poor removal 0-25%)

B1: Thermolys: enzyme, Sigma (protein, UniProt P00800 233-548, looked up)
Thermolysin: ITGTSTVGVGRGVLGDQKNINTTYSTYYYLQDNTRGNGIFTYDAKYRTTLPGSLWADADNQFFASYDAPAVDAHYYAGVTYDYYKNVHNRLSYDGNNAAIRSSVHYSQGYNNAFWNGSQMVYGDGDGQTFIPLSGGIDVVAHELTHAVTDYTAGLIYQNESGAINEAISDIFGTLVEFYANKNPDWEIGEDVYTPGISGDSLRSMSDPAKYGDPDHYSKRYTGTQDNGGVHINSGIINKAAYLISQGGTHYGVSVVGIGRDKLGKIFYRALTQYLTPTSNFSQLRAAAVQSATDLYGSTSQEVASVKQAFDAVGVK
Result (removal; % covered area reduction) (biofilm 1; Treat. No. 33, 2 mg/50 ml, 37 °C, 40 min, Recirc): ** (Moderate removal 25-50%)
